Measurements reported in US8759104B2, “Cationic lipids” (The University Court of the University of Edinburgh, priority 2010, dated 2014).

Assays:
HeLa cells [1] = assay: Transfection of pEGFP-C1 reporter plasmid into HeLa cells, GFP expression by flow cytometry; type: cell-based, human; conditions: for Transfection compared with the positive controls: N/P ratio 3, 1:1 mol mixture with DOPE, controls Effectene, Lipofectamine 2000, Fugene
Protocol: (§1) The corresponding cationic lipid (1 mM in methanol) were mixed in different proportions with DOPE (10 mg/mL in chloroform) and the organic solvent removed by evaporation in an oven (37° C.) overnight. The resultant thin films were then hydrated with PBS. The solutions were vortexed (10-20 s) and incubated at ambient temperature for 20 min. Plasmid DNA or siRNA solution (0.04 mg/mL in PBS or another isotonic solution) was subsequently added and the solution vortexed (10-20 s). The lipoplexes were incubated at room temperature for 20 min before being used.
(§2) Human HeLa cells were grown in RPMI supplemented with 4 mM glutamine, 10% FCS and 100 units/ml penicillin/streptomycin (RPMI-CM) until 80% confluence. HEK293 and B16F10 cells were grown in DMEM supplemented with 4 mM glutamine, 10% FCS and 100 units/ml penicillin/streptomycin (DMEM-CM) until 80% confluence. Cells were then suspended using trypsin/EDTA and counted. 2×10^4 cells in 150 μL of media per well were seeded in 96 well plates and incubated overnight. The day afterwards, the different lipoplex formulations were added. Each experiment was performed in quadruplicate, using Effectene® Transfection Reagent (Qiagen), Lipofectamine™ 2000 (Invitrogen) and Fugene (Roche) as positive controls and untreated cells as negative controls. After two days incubation at 37° C. and 5% CO2 (the change of media after transfection was not necessary), the green fluorescent protein (GFP) expression, as a consequence of transfecting the pEGFP-C1, was evidenced using a fluorescent microscope (Leica) and measured by flow cytometry. For the flow cytometry analysis, cells were washed twice with PBS, detached with trypsin/EDTA, harvested with 2% ferum bovine serum (FBS) in PBS, centrifuged and resuspended with 2% FBS in PBS and analyzed using a BD FACSaria flow cytometer. Transfection efficiency was measured as percentage of transfected cells.
(§3) Reagents that obtained greater than 50% transfection were also analyzed against HEK293 and B16F10 cell lines. Transfection results (+ percentages of transfection between 5-25%; ++ percentages of transfection between 25-50%; N.D. not determined). MTT toxicity assay results are indicated between brackets with 100% being cell viability of untreated cells.

HEK293 cells [2] = assay: Transfection of pEGFP-C1 reporter plasmid into HEK293 cells, GFP expression by flow cytometry; type: cell-based, human
Protocol: as §1, §2, §3

B16F10 cells [3] = assay: Transfection of pEGFP-C1 reporter plasmid into B16F10 cells, GFP expression by flow cytometry; type: cell-based, mouse
Protocol: as §1, §2, §3

HeLa cells [4] = assay: MTT cell viability assay of transfected HeLa cells; type: cell-based, human; conditions: 100% being cell viability of untreated cells; 24 h after addition of transfection agents
Protocol: as §3
(§4) Twenty-four hours after the addition of transfection agents, cell viability was measured using an MTT cell proliferation assay (LGC Promochem, Middlesex, UK), which was performed according to the manufacturer's instructions. Absorbance was read at 570 nm. […] The comparative data obtained with lipids 28a, 29a, 30a and 31a of the invention, Lipofectamine™ 2000, Fugene and Effectene® Transfection Reagent are shown between brackets in Table 2.

HEK293 cells [5] = assay: MTT cell viability assay of transfected HEK293 cells; type: cell-based, human; conditions: 100% being cell viability of untreated cells; 24 h after addition of transfection agents
Protocol: as §3, §4

B16F10 cells [6] = assay: MTT cell viability assay of transfected B16F10 cells; type: cell-based, mouse; conditions: 100% being cell viability of untreated cells; 24 h after addition of transfection agents
Protocol: as §3, §4

HeLa cells [7] = assay: Transfection of fluorescein-labelled siRNA (siGLO) into HeLa cells, flow cytometry; type: cell-based, human; conditions: 24 h incubation
Protocol: as §1
Cells were suspended using trypsin/EDTA and counted. 2×10^4 cells in 150 μL of RPMI-CM per well were seeded in 96-well plates and incubated overnight. The day afterwards, the different lipoplex formulations formulated with siGLO (fluorescein-labeled siRNA that localizes within cell nuclei (Dharmacon)) and added to the cells. […] After 24 h incubation at 37° C. and 5% CO2 (change of media after transfection was not necessary), the green fluorescence emitted by intracellular siGLO was imaged under microscope. […] For the flow cytometry analysis, cells were washed twice with PBS, detached with trypsin/EDTA, harvested with 2% FBS in PBS, centrifuged and resuspended with 2% FBS in PBS and analyzed using a BD FACSaria flow cytometer.

mice = assay: In vivo transfection of luciferase-expressing plasmid (pLux) in mice, luminescence imaging
Protocol: Experiments were performed to transfect a luciferase-expressing plasmid (pLux) by intravenous injection via the vein tail of mice: three transfected with pLux complexed with compound 29a and three (control) with naked pLux. Two days after instillation, firefly luciferin was administrated intraperitoneally and the mice imaged using an IVIS Spectrum.
The mouse depicted on the left was transfected with naked plasmid; the mouse the right was transfected with plasmid complexed with compound 29a. Mice (n=3, per experiment) were anaesthetised and intubated following standard protocols. 16 μg of a luciferase-reporter plasmid were used per mouse. […] Firefly luciferin (15 mg/kg) was administered intraperitoneally to the anesthetized mice 15 min before scanning for luminescence. Imaging was performed on the IVIS Spectrum (Caliper LS) with large binning, open filter for 10 min.

[8] = HeLa cells 48 h after transfection with reporter plasmid, flow cytometry

Behaviour of mice during the study (mice; mice monitored on a daily basis, n=3 per experiment)	Structure (SMILES)	Transfection efficiency (percentage of transfected cells), HeLa (HeLa cells [1]; [8]) [%]	Transfection compared with the positive controls (HeLa cells [1])	Transfection efficiency (percentage of transfected cells), HEK293 (HEK293 cells [2]) [%]	Transfection efficiency (percentage of transfected cells), B16F10 (B16F10 cells [3]) [%]	MTT toxicity assay, cell viability (between brackets), HeLa (HeLa cells [4]) [%]	MTT toxicity assay, cell viability (between brackets), HEK293 (HEK293 cells [5]) [%]	MTT toxicity assay, cell viability (between brackets), B16F10 (B16F10 cells [6]) [%]	Cells fluorescently labelled after siRNA transfection (HeLa cells [7])	Luminescence after in vivo transfection of pLux (mice; mice, intravenous injection via tail vein, 16 μg plasmid per mouse, imaged 48 hours after transfection)	Location of highest luminescence signal (mice; mice, intravenous injection via tail vein, 48 hours after transfection)	Transfection results (percentage of transfected cells), HeLa (HeLa cells [1]; [8])
	CCCCCCCCCCCCCCCC(=O)NCCN(CCNC(=O)CCCCCCCCCCCCCCC)C(=O)CCC(=O)N[C@@H](CCCNC(=N)N)C(=O)N[C@@H](CCCNC(=N)N)C(N)=O.O=C(O)C(F)(F)F.O=C(O)C(F)(F)F [Compound A2-Sp1-P]	85	more effectively than the positive controls	89	74	99	97	98				
behaved normally	CCCCCCCCCCCCCCCC(=O)NCCN(CCNC(=O)CCCCCCCCCCCCCCC)C(=O)/C=C\C(=O)N[C@@H](CCCNC(=N)N)C(=O)N[C@@H](CCCNC(=N)N)C(N)=O.O=C(O)C(F)(F)F.O=C(O)C(F)(F)F [Compound A2-Sp2-P]	86	more effectively than the positive controls	90	78	99	98	99	over 96%	Positive luminescence was detected	at the point of injection	
	CCCCCCCCCCCCCCCC(=O)NCCN(CCNC(=O)CCCCCCCCCCCCCCC)C(=O)CCC(=O)N[C@@H](CCCNC(=N)N)C(=O)N[C@@H](CCCNC(=N)N)C(=O)N[C@@H](CCCNC(=N)N)C(N)=O.O=C(O)C(F)(F)F.O=C(O)C(F)(F)F.O=C(O)C(F)(F)F [Compound A3-Sp1-P]	75		84	56	93	95	89				
	CCCCCCCCCCCCCCCC(=O)NCCN(CCNC(=O)CCCCCCCCCCCCCCC)C(=O)/C=C\C(=O)N[C@@H](CCCNC(=N)N)C(=O)N[C@@H](CCCNC(=N)N)C(=O)N[C@@H](CCCNC(=N)N)C(N)=O.O=C(O)C(F)(F)F.O=C(O)C(F)(F)F.O=C(O)C(F)(F)F [Compound A3-Sp2-P]	70		80	69	92	96	93				
	CCCCCCCCCCCCCCCCCC(=O)NCCCN(CCCNC(=O)CCCCCCCCCCCCCCCCC)C(=O)/C=C\C(=O)N[C@@H](CCCNC(=N)N)C(=O)N[C@@H](CCCNC(=N)N)C(=O)N[C@@H](CCCNC(=N)N)C(N)=O.O=C(O)C(F)(F)F.O=C(O)C(F)(F)F.O=C(O)C(F)(F)F [Compound A3-Sp4-S]											+ (percentages of transfection between 5-25%)
